For data set [1], the system named is Crl:SKH1-hr hairless mouse. Briefly: In vivo phototoxicity, Crl:SKH1-hr hairless mouse model. The settings on record: hairless mice, intracutaneous 0.0375 or 0.375 mg/mouse, UVA 20 J/cm^2, observed up to 3 days. The method, then:
To estimate its potential to produce phototoxicity in vivo, Compound 102 was tested in validated in vivo and in vitro models of acute phototoxic activity at Charles River Laboratories (See Spielmann, H., et al., The second ECVAM workshop on phototoxicity testing. The report and recommendations of ECVAM workshop 42. Altern Lab Anim, 2000. 28(6): p. 777-814; and Peters, B. and H. G. Holzhutter, In vitro phototoxicity testing: development and validation of a new concentration response analysis software and biostatistical analyses related to the use of various prediction models. Altern Lab Anim, 2002. 30(4): p. 415-32, the entire teachings of both are incorporated herein by reference).
A vehicle control group was injected with normal saline. The pH of compound formulations was adjusted to 6.5±0.5 prior to injection. Immediately after administration, mice were lightly anesthetized via intraperitoneal injection of chloral hydrate in deionized water and then positioned on plastic tubing with laboratory tape. An aluminum foil mask with a single hole with a diameter of 1.3 cm (1.3 cm^2) was placed over the mid-dorsum injection site before UVA exposure. The distal administration site was shielded from UVA exposure. A UVA dose of no less than 20.0 and no more than 20.1 J/cm^2 at an intensity of 5±1 mW/cm^2 at the level of the mice was delivered during the exposure period. […]

For data set [2], the system named is E. coli DH10B EC971 LacZ. The experiment in a line: MIC, E. coli DH10B recombinantly expressing control gene. The settings on record: E. coli DH10B, arabinose-induced, ampicillin in medium.
Data set [3] concerns E. coli DH10B EC1153 Tet(X). The experiment in a line: MIC, E. coli DH10B recombinantly expressing tetracycline-resistance gene. The settings on record: arabinose-induced, ampicillin in medium.
The subject of data set [4] is E. coli DH10B EC969 TetM. The data set is described as above. To be noted: arabinose-induced, ampicillin in medium.
Data set [5] relates to E. coli DH10B EC970 TetK. Described as above. To be noted: arabinose-induced, ampicillin in medium.
Data set [6] has as its system E. coli DH10B EC1082 TetA. Described as above. The settings on record: arabinose-induced, ampicillin in medium.
In data set [7] the test system is E. coli DH10B EC1083 TetB. Described as above. The settings on record: arabinose-induced, ampicillin in medium.
For data set [8], the system named is S. aureus SA101. The class given is cell-based. The settings on record: SA101, plates containing compound at 5× the MIC.
The subject of data set [9] is S. pneumoniae SP106. The data set is classed as cell-based. To be noted: SP106, plates containing compound at 5× the MIC, 5% sheep blood.
In data set [10] the test system is Gram-negative and Gram-positive organisms (clinical isolates). Briefly: Broth microdilution MIC against clinical isolates (CLSI M7-A8), Table 9. The data set is classed as cell-based.
Data set [11] concerns M. catarrhalis (n = 50). The experiment in a line: Broth microdilution MIC, respiratory pathogens (Table 13).
The subject of data set [12] is Gram-positive pathogens. The experiment in a line: Broth microdilution MIC, respiratory/skin pathogens (Table 12).
[13] abbreviates: Staphylococcus aureus (MRSA PVL+), n=30.
Where [14] appears, read: Stenotrophomonas maltophilia, n=29.

In the case of `CN(C)c1ccc(O)c2c1C[C@H]1C[C@H]3[C@H](N(C)C)C(O)=C(C(N)=O)C(=O)[C@@]3(O)C(O)=C1C2=O` [Minocycline, minocycline], the “phototoxicity, skin reactions at site of UVA exposure” value in data set [1] is listed as “no skin reaction at either dose”. Moreover, the “MIC EC971 LacZ” value in [2] was 0.5. For the same molecule, the “MIC EC1153 Tet(X)” value in data set [3] was found to be 4. For the same molecule, the “MIC EC969 TetM” value in data set [4] amounted to 64. For the same molecule, the “MIC EC970 TetK” value in data set [5] turned out to be 1. For the same molecule, the “MIC EC1082 TetA” value in data set [6] was 8. Further, in [7], the “MIC EC1083 TetB” value is on record as 16.
Take `CO[C@H]1/C=C/O[C@@]2(C)Oc3c(C)c(O)c4c(O)c(c(/C=N/N5CCN(C)CC5)c(O)c4c3C2=O)NC(=O)/C(C)=C\C=C\[C@H](C)[C@H](O)[C@@H](C)[C@@H](O)[C@@H](C)[C@H](OC(C)=O)[C@@H]1C` [rifampin, reference compound]: the values for the spontaneous resistance frequency in [8] and in data set [9] were 2.0×10^−8 and 2.88×10^−7, respectively.
As for Gentamicin, the MIC50 – broadly, the lowest concentration that inhibits either 50% of growth or 50% of the strains tested, depending on the study – in [10] (Acinetobacter lwoffii, n=29) was “≦0.25 μg/ml”; in data set [10] (Enterobacter aerogenes, n=30), “≦0.25 μg/ml”; in [10] (Enterobacter cloacae, n=29) it was 0.5 µg/mL; in data set [10] (Escherichia coli, n=40), 2 µg/mL; in data set [10] (Kiebsielia oxytoca, n=30), 0.5 µg/mL; in [10] (Klebsiella pneumonia, n=27) it was greater than 8 µg/mL. The MIC50 in data set [10] (Morganella morganii, n=30) was determined as 1 µg/mL; in [10] (Proteus vulgaris, n=29), 1 µg/mL; in [10] (Salmonella species, n=30), 0.5 µg/mL; in [10] (Serratia marcescens, n=30), 0.5 µg/mL; in data set [10] (Shigella species, n=30), 1 µg/mL; in data set [10] (setting [13]), 0.25 µg/mL. Moreover, the MIC50 is greater than 8 µg/mL in data set [10] (setting [14]); 0.12 µg/mL in data set [11]; 0.25 µg/mL in data set [12] (CoNS, MRCoNS (n = 26)); 0.12 µg/mL in data set [12] (CoNS, MSCoNS (n = 26)); greater than 8 µg/mL in data set [12] (E. faecalis, VAN NS (n = 48)); greater than 8 µg/mL in data set [12] (E. faecalis, VAN S (n = 53)). Further, the MIC50 was 8 µg/mL in data set [12] (E. faecium, VAN NS (n = 51)); 8 µg/mL in data set [12] (E. faecium, VAN S (n = 49)); 0.25 µg/mL in [12] (S. aureus, MSSA (n = 50)); “≦0.06 mg/mL” in data set [12] (S. saprophyticus (n = 36)). Moreover, the MIC90 (as a rule, the lowest concentration that inhibits either 90% of growth or 90% of the strains tested, depending on the study) in [10] (Acinetobacter lwoffii, n=29) is 1 µg/mL; in data set [10] (Enterobacter aerogenes, n=30), 0.5 µg/mL; in data set [10] (Enterobacter cloacae, n=29), greater than 8 µg/mL; in data set [10] (Escherichia coli, n=40) it was greater than 8 µg/mL; in [10] (Kiebsielia oxytoca, n=30), 2 µg/mL; in data set [10] (Klebsiella pneumonia, n=27), greater than 8 µg/mL. Also, the MIC90 is greater than 8 µg/mL in [10] (Morganella morganii, n=30); greater than 8 µg/mL in [10] (Proteus vulgaris, n=29); 1 µg/mL in data set [10] (Salmonella species, n=30); 1 µg/mL in [10] (Serratia marcescens, n=30); 1 µg/mL in data set [10] (Shigella species, n=30); 0.5 µg/mL in data set [10] (setting [13]). In addition, the MIC90 in data set [10] (setting [14]) is greater than 8 µg/mL; in [11], 0.12 µg/mL; in data set [12] (CoNS, MRCoNS (n = 26)), greater than 8 µg/mL; in data set [12] (CoNS, MSCoNS (n = 26)) it was 0.25 µg/mL; in data set [12] (E. faecalis, VAN NS (n = 48)) it was greater than 8 µg/mL; in data set [12] (E. faecalis, VAN S (n = 53)) it was greater than 8 µg/mL. Also, the MIC90 in data set [12] (E. faecium, VAN NS (n = 51)) was greater than 8 µg/mL; in data set [12] (E. faecium, VAN S (n = 49)), greater than 8 µg/mL; in data set [12] (S. aureus, MSSA (n = 50)), 0.5 µg/mL; in [12] (S. saprophyticus (n = 36)) it was “≦0.06 mg/mL”.

For the origin of these results see patent publication US20170107179A1 (Tetraphase Pharmaceuticals, Inc., priority 2010, published 2017).
